Measured values as given in publication PMC6391970, “Design, Synthesis and Characterization of Covalent KDM5 Inhibitors” (Angewandte Chemie (International Ed. in English), 2018).
Marks after values point to notes of the source that are not given here.

Columns and labels:
[1] = molecular target: T1, KDM5B (Homo sapiens, UniProt Q9UGL1, A373G/DEL102-140/DEL143-371/Q372G); test: KDM5B 2-OG competition assay (AlphaScreen); format: biochemical; conditions: for IC50: AlphaScreen in vitro activity in KDM5B
T1 construct: A KDM5B construct encoding regions Phe26-Ile770 was amplified from an OriGene cDNA clone; 6x-histidine tag (TEV-cleavable) (N, cleaved yes); made in house; host or cells: Sf9 insect cells (baculovirus)
T1 sequence (Q9UGL1 with tags, fused parts or gaps DEL102-140/DEL143-371/Q372G/A373G): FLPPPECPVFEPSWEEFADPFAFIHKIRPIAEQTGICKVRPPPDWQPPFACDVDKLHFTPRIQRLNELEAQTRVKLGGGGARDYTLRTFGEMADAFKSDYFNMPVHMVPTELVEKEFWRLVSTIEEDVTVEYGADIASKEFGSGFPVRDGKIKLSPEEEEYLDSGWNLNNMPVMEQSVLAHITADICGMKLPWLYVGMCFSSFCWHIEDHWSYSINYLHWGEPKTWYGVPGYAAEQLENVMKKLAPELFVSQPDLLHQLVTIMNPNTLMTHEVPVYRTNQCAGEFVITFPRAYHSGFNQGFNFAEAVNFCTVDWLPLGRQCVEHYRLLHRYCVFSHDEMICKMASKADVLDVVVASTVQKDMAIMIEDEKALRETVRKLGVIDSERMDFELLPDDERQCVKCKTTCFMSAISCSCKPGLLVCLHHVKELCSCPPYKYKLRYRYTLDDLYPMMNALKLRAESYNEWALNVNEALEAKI
Description: (§1) KDM alpha screen selectivity
(§2) Inhibition of histone demethylases was assessed using the histone demethylase AlphaScreen assay (Amplified Luminescence Proximity Homogenous Assay) as previously reported.[4] The basis of this assay for lysine demethylases have been widely described.[5] In brief, the assay was performed in 384-well plate format using white proxiplates (PerkinElmer), and transfer of titrations of compounds (100 nl) was performed using an ECHO 550 acoustic dispenser […]
(§3) Tween- 20) containing the appropriate demethylase enzyme (see Supplementary table 1 for final concentrations) was transferred to each well of a 384-well proxiplate with a Multidrop™ Combi Reagent Dispenser, and the enzymes allowed to pre-incubate for 120 minutes with compound (final concentration of DMSO was 1%). After that time, the enzyme reaction was initiated by addition of 5 µl of a substrate mix consisting of Ketoglutarate (2-OG), Ferrous Ammonium Sulphate (FAS), L-Ascorbic Acid (LAA) and biotinylated peptide substrate (see Supporting table X for final assay concentrations) and the reaction incubated for the indicated time at room temperature. Reaction was stopped by the addition of 5 μl of assay buffer containing EDTA (7.5 mM) and NaCl (400 mM). Streptavidin Donor beads (0.08 mg/ml) and Protein-A conjugated acceptor beads (0.08 mg/ml) (AlphaScreen General IgG detection kit was from Perkin Elmer) were pre-incubated for 1 hour with an antibody to the product methyl mark (Supplementary Table 1) and the presence of biotin-H3-product was detected by addition of 5 µl of the pre-incubated AlphaScreen beads (final concentrations of 0.02 mg/ml with respect to acceptor and donor beads). Detection was allowed to proceed for 2 hour at room temperature and the assay plates read in a BMG Labtech Pherastar FS plate reader (excitation, 680 nm; emission, 570 […]
IC50(t) = Ki (1 + K ) . ( η . k .t − 1) (1)
KDM5B 2-OG competition assay
2-OG competition assay were performed as described for the general KDM5B AlphaScreen method above, varying the 2-OG concentrations from a range of 1mM to 0.5 μM. Data were normalized to the no enzyme control and the IC50 determined from the nonlinear regression curve fit using GraphPad Prism 7.

[2] = Caco-2 permeability; format: in vitro ADME; conditions: human, Caco-2, Caco‐2 cells, A to B
[3] = molecular target: T2, KDM5B (Homo sapiens, UniProt Q9UGL1); test: Timecourse KDM5B AlphaScreen inhibition and kinact/Ki calculation; format: biochemical
T2 sequence (Q9UGL1 26-101 limits assumed): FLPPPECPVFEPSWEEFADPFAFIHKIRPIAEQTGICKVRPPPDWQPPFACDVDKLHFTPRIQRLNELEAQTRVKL
T2 sequence (Q9UGL1 374-770 limits assumed): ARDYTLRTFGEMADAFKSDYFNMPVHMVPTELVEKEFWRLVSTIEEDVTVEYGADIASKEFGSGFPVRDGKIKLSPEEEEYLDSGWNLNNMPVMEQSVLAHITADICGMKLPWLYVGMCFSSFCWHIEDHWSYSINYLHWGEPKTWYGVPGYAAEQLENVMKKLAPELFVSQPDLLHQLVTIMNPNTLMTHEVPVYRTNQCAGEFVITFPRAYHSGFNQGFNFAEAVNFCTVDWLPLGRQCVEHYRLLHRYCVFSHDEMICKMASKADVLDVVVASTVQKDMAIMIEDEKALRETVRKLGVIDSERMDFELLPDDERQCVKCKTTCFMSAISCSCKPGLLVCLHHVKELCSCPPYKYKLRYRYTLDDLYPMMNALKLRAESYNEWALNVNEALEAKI
Description: These parameters were calculated by using an established method to derive K i and k inact directly from time‐dependant IC50 values (Table S1). […]
as §1, §2
as §3, with “570 nm). Data were normalized to the no enzyme control and the IC50 determined from the nonlinear regression curve fit” for “570”
Timecourse KDM5B inhibition and Kinact/Ki calculations
The timecourse alphascreen assay was performed using the conditions described in the AlphaScreen section for KDM5B but with different pre-incubation times (from 0 to 120 min) for the enzyme with compound. Data were normalized to the no enzyme control and the IC50 for each timepoint was determined from the nonlinear regression curve fit using GraphPad Prism 7. The Ki and kinact were calculated through a least squares fit of the obtained IC50 at the different timepoints into the equation below which was derived by Krippendorff et al.[6] S is the H3K4me3 peptide substrate concentration of 0.1 µM and KM is the Michaelis-Menten constant for the substrate of 0.5 µM. XLFit software was used to compute the values of Ki and kinact. […]

[4] = molecular target: KDM5B (NanoLuc-KDM5B) (Homo sapiens, UniProt Q9UGL1); test: NanoBRET cellular target engagement assay in HEK293 cells
Sequence of KDM5B (NanoLuc-KDM5B) (Q9UGL1 whole entry): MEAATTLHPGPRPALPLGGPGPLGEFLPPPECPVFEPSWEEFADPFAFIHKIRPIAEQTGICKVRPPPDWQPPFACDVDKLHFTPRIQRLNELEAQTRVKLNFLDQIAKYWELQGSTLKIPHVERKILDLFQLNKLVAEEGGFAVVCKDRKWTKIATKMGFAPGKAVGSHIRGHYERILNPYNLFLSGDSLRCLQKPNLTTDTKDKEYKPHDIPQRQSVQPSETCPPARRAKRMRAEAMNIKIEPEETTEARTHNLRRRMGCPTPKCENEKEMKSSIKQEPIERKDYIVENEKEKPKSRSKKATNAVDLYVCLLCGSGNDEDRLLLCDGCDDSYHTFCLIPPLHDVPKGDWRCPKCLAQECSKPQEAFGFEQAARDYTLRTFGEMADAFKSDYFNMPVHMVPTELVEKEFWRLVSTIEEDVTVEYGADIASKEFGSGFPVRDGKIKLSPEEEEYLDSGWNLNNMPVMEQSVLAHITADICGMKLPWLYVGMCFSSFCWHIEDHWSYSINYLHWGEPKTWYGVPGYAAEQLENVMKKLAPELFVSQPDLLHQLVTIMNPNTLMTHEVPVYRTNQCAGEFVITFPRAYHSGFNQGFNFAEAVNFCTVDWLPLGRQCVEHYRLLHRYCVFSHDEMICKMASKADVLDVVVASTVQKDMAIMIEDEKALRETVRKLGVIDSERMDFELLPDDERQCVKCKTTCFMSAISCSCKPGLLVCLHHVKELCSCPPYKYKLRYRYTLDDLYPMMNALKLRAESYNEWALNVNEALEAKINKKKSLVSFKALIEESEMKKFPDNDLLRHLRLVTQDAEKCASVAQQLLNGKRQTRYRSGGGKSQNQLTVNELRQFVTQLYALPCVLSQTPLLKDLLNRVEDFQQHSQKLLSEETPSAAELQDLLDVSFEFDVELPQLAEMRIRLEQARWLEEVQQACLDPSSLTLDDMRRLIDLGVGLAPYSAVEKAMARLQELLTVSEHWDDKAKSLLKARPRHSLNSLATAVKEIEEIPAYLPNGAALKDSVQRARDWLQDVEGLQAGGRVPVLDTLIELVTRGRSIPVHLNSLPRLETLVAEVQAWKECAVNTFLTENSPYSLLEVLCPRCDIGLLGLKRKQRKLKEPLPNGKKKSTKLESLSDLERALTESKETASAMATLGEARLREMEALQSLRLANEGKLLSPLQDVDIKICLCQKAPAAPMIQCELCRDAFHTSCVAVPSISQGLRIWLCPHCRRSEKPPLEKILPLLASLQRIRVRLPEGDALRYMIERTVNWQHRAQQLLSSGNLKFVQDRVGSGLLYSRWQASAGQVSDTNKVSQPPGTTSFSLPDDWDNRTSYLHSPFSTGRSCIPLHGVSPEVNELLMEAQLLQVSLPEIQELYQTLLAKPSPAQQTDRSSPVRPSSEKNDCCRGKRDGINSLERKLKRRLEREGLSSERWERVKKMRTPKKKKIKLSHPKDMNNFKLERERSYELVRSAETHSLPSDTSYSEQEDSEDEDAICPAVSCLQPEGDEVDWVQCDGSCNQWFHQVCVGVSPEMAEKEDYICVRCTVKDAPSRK

[5] = molecular target: T1, KDM5B; test: Covalent binding by MS (RapidFire intact mass, peptide mapping), KDM5B
[6] = test system: KDM5B; conditions: previously reported value, cited from earlier work
[7] = test system: MDCK cells; conditions: Previously reported values in MDCK cells, A to B; cited from earlier work

| Papp A→B [2] [×10⁻⁶ cm/s] | Ki [3] [nM] | k inact/K i [3] [M⁻¹ s⁻¹] | kinact [3] [s⁻¹] | kinact/KI ([3]; Table S1) [M⁻¹ s⁻¹] | IC50 [4] [nM] | inhibitor reactive residue in KDM5B (peptide mapping, LCMS/MS) ([5]; digestion of protein–inhibitor adduct) | SMILES | IC50 ([1]; IC50 (2‐OG 1 μM), 2-OG 1 μM) [nM] | covalent binding to KDM5B by intact MS ([5]; protein 1 μM, compound 10 μM, 2 hours, 37 °C) | 2‐OG shift [6] | IC50 ([6]; read-out: IC50 (2‐OG 1 μM), KDM5B) [nM] | P app [7] | drop in potency with 2-OG concentration ([1]; 2-OG from 0.5 μM up to 1000 μM) [fold] | IC50 ([1]; IC50 (2‐OG 1 mM), 2-OG 1 mM) [nM] |
| --- | --- | --- | --- | --- | --- | --- | --- | --- | --- | --- | --- | --- | --- | --- |
| < 1.5 | 834 ± 79 | 1400 | 0.0012 ± 1.3e-05 | 1400 ± 20 | > 30000 | binding specifically to the desired C480 | C=CC(=O)N1CCN(CCc2cnn(-c3nccc4c(=O)[nH]cnc34)c2)CC1 [Compound 3] | 184 | major peak relating to protein–inhibitor adduct |  |  |  |  |  |
|  |  |  |  |  | 400 |  | CC(C)c1c(-c2ccccc2)[nH]c2c(C#N)cnn2c1=O [CPI‐455] |  |  | 2.0^[c] | 3 | 17.2^[c] 10^−6 cm s^−1 |  |  |

| SMILES | Papp A→B [2] [×10⁻⁶ cm/s] | Ki [3] [nM] | k inact/K i [3] [M⁻¹ s⁻¹] | kinact [3] [s⁻¹] | kinact/KI ([3]; Table S1) [M⁻¹ s⁻¹] | IC50 [4] [nM] | inhibitor reactive residue in KDM5B (peptide mapping, LCMS/MS) ([5]; digestion of protein–inhibitor adduct) | IC50 ([1]; IC50 (2‐OG 1 μM), 2-OG 1 μM) [nM] | covalent binding to KDM5B by intact MS ([5]; protein 1 μM, compound 10 μM, 2 hours, 37 °C) | 2‐OG shift [6] | IC50 ([6]; read-out: IC50 (2‐OG 1 μM), KDM5B) [nM] | P app [7] | drop in potency with 2-OG concentration ([1]; 2-OG from 0.5 μM up to 1000 μM) [fold] | IC50 ([1]; IC50 (2‐OG 1 mM), 2-OG 1 mM) [nM] |
| --- | --- | --- | --- | --- | --- | --- | --- | --- | --- | --- | --- | --- | --- | --- |
| CC(C)c1c(-c2cnn(C(C)(C)C)c2)[nH]c2c(C#N)cnn2c1=O [Compound 1, reference compound] |  |  |  |  |  | 340 |  | 15 |  |  |  | 7.5^[c] 10^−6 cm s^−1 | 8 | 377 |
